Where a SMILES comes first, the peptide text is derived from it. [ ]: non-standard residue; d: D form. The star is where a group is joined. Dolaproine = CO[C@@H]([C@@H]1CCCN1)[C@@H](C)C(=O)O; Dil = CC[C@H](C)[C@H](NC)[C@@H](CC(=O)O)OC; X1 = C[C@@H](N*)[C@@H](O)c1ccccc1; NMeV = CN[C@H](C(=O)O)C(C)C
The compounds below were run on LS174T cells (assay: Cell proliferation (MTT) assay, LS174T). Conditions: 72 h.
Type: cell-based, human
Method: (§1) The human colon cancer LS174T cell line was cultured in RPMI-1640 medium supplemented with 2 mM glutamine and 10% heat inactivated fetal calf serum. The human ovary carcinoma NIH:OVCAR-3 cell line was cultured in RPMI-1640 medium supplemented with 1 mM sodium pyruvate, 10 mM HEPES, 2 mM glutamine, 10 pg/mL bovine insulin and 20% fetal calf serum. The LS174T and NIH:OVCAR-3 cells were plated in 96-well plates at a 5000 cells/well density 24 h prior to the experiment. […] After 72 h incubation at 37° C., cell proliferation was assessed by an MTT assay. The proliferation assay was performed in triplicate.

| Compound | EC50 |
| --- | --- |
| CC[C@H](C)[C@@H]([C@@H](CC(=O)N1CCC[C@H]1[C@H](OC)[C@@H](C)C(=O)N[C@H](C)[C@@H](O)c1ccccc1)OC)N(C)C(=O)[C@@H](NC(=O)[C@@H](NC)C(C)C)C(C)C [MMAE, Monomethyl auristatin E] (H-[NMeV]V[Dil][Dolaproine]-X1) | 0.277 nM |

The compounds below were run on NIH:OVCAR-3 cells (assay: Cell proliferation (MTT) assay, NIH:OVCAR-3). Conditions: NIH:OVCAR-3, 72 h.
Type: cell-based, human
Method: as §1

| Compound | EC50 |
| --- | --- |
| CC[C@H](C)[C@@H]([C@@H](CC(=O)N1CCC[C@H]1[C@H](OC)[C@@H](C)C(=O)N[C@H](C)[C@@H](O)c1ccccc1)OC)N(C)C(=O)[C@@H](NC(=O)[C@@H](NC)C(C)C)C(C)C [MMAE, Monomethyl auristatin E] (H-[NMeV]V[Dil][Dolaproine]-X1) | 0.039 nM |

The compounds below were run on AVP0458-TCO-MMAE (assay: Tetrazine-induced MMAE release from diabody ADC (LC-SIM-MS, D8-MMAE standard)). Conditions: 37° C., 24 h, PBS/plasma (1/1), 10 equiv of tetrazine.
Method: MMAE release from diabody ADC (AVP0458-TCO-MMAE) was determined by using a deuterated internal standard D8-MMAE. ADC (1.1×10^−10 moles bound MMAE) and D8-MMAE (1.1×10^−10 moles) and 10 equiv of tetrazine were incubated in 100 uL PBS/plasma (1/1) at 37° C. […] After vortexing, 10 min standing at −20° C. and centrifugation, the supernatants were separated from the protein pellets, diluted with five parts of PBS and the ratio MMAE/D8-MMAE was measured with LC-SIM-MS, affording the release yields (Table 3).

| Compound | release (%), induced MMAE release from AVP0458-TCO-MMAE |
| --- | --- |
| Cc1nnc(C)nn1 [Compound 2.1, 3,6-dimethyl-1,2,4,5-tetrazine] | 95 ± 0.4% |
| Cc1nnc(-c2ccc(NC(=O)CCCC(=O)NCCOCCOCCOCCOCCOCCOCCOCCOCCOCCOCCOCCNC(=O)CN3CCN(CC(=O)O)CCN(CC(=O)O)CCN(CC(=O)O)CC3)cn2)nn1 [Compound 3.4, 2,2′,2″-(10-(44-((6-(6-methyl-1,2,4,5-tetrazin-3-yl)pyridin-3-yl)amino)-2,40,44-trioxo-6,9,12,15,18,21,24,27,30,33,36-undecaoxa-3,39-diazatetratetracontyl)-1,4,7,10-tetraazacyclododecane-1,4,7-triyl)triacetic acid] | 47 ± 0.3% |
| Cc1nnc(-c2ncccn2)nn1 [Compound 4.1, 3-methyl-6-(pyrimidin-2-yl)-1,2,4,5-tetrazine] | 69 ± 0.0% |
| CN(CCc1nnc(-c2ncccn2)nn1)C(=O)CCCC(=O)NC(CO)(CO)CO [Compound 4.15] | 55 ± 0.4% |
| Cc1nnc(-c2nccc(CNC(=O)OC(C)(C)C)n2)nn1 [Compound 4.17] | 70 ± 0.1% |
| Cc1nnc(-c2cnccn2)nn1 [Compound 4.18] | 55 ± 0.8% |
| Cc1nnc(-c2ccncn2)nn1 [Compound 4.19] | 60 ± 0.1% |
| Cc1nnc(-c2nccnc2C)nn1 [Compound 4.20] | 59 ± 0.3% |
| Cc1nnc(-c2nccc(C(=O)O)n2)nn1 [Compound 4.23] | 69 ± 0.5% |
| Cc1nnc(-c2nccc(CNC(=O)CN(CCN(CC(=O)O)CC(=O)O)CC(=O)O)n2)nn1 [Compound 4.26] | 59 ± 0.6% |
| Cc1nnc(-c2nccc(CNC(=O)CCCC(=O)O)n2)nn1 [Compound 4.27] | 66 ± 0.5% |

— patent US20210308207A1, “COMPOUNDS COMPRISING A LINKER FOR INCREASING TRANSCYCLOOCTENE STABILITY” (Tagworks Pharmaceuticals B.V., priority 2018, published 2021)
